In ChEMBL document CHEMBL3580645, “Antiviral Activity of Flexibilane and Tigliane Diterpenoids from Stillingia lineata” (J Nat Prod, 2015):

Test system: not listed separately
Test: in vitro
Settings: human, MT4 cells
Work on `CCC(C)C(=O)O[C@@]12C[C@@H](C)[C@@]3(O)[C@@H](C=C(CO)C[C@]4(O)C(=O)C(C)=C[C@@H]34)[C@@H]1C2(C)C` (some centres not stated) yielded a CC50 at 72 h of 116 µM. For `Cc1ccnc2c1NC(=O)c1cccnc1N2C1CC1` [NEVIRAPINE], the CC50 at 72 h was > 15 µM. For `Nc1ccn([C@@H]2CS[C@H](CO)O2)c(=O)n1` [LAMIVUDINE], the CC50 at 72 h was > 87 µM. Compound `CC/C=C/C=C/C=C\C(=O)O[C@@H]1[C@@H](C)[C@]2(O)[C@@H]3C=C(C)C(=O)[C@@H]3CC(CO)=C[C@H]2[C@@H]2C(C)(C)[C@]12OC(=O)CCC` has a CC50 at 72 h of 8.4 µM.

Test system: Chikungunya virus
Test: microbe, parasite or virus in culture
Settings: strain 899, Vero
In the case of `CCC(C)C(=O)O[C@@]12C[C@@H](C)[C@@]3(O)[C@@H](C=C(CO)C[C@]4(O)C(=O)C(C)=C[C@@H]34)[C@@H]1C2(C)C` (some centres not stated), the EC50 is reported as 1200 nM. For `CC/C=C/C=C/C=C\C(=O)O[C@@H]1[C@@H](C)[C@]2(O)[C@@H]3C=C(C)C(=O)[C@@H]3CC(CO)=C[C@H]2[C@@H]2C(C)(C)[C@]12OC(=O)CCC`, the EC50 was 1400 nM.

Test system: Human immunodeficiency virus 1
Test: microbe, parasite or virus in culture
Settings: Human immunodeficiency virus 1, 3B, MT4, 120 h
Work on `CCC(C)C(=O)O[C@@]12C[C@@H](C)[C@@]3(O)[C@@H](C=C(CO)C[C@]4(O)C(=O)C(C)=C[C@@H]34)[C@@H]1C2(C)C` (some centres not stated) yielded an EC50 of 129 nM. With `Cc1ccnc2c1NC(=O)c1cccnc1N2C1CC1` [NEVIRAPINE] the EC50 was 10 nM. Work on `Nc1ccn([C@@H]2CS[C@H](CO)O2)c(=O)n1` [LAMIVUDINE] yielded an EC50 of 3900 nM. With `CC/C=C/C=C/C=C\C(=O)O[C@@H]1[C@@H](C)[C@]2(O)[C@@H]3C=C(C)C(=O)[C@@H]3CC(CO)=C[C@H]2[C@@H]2C(C)(C)[C@]12OC(=O)CCC` the EC50 was 233 nM.

Test system: not listed separately
Test: in vitro
Settings: monkey, Vero cells
In the case of `CC/C=C/C=C/C=C\C(=O)O[C@@H]1[C@@H](C)[C@]2(O)[C@@H]3C=C(C)C(=O)[C@@H]3CC(CO)=C[C@H]2[C@@H]2C(C)(C)[C@]12OC(=O)CCC`, the selectivity ratio is reported as 1.4.

Test system: Human immunodeficiency virus 2
Test: microbe, parasite or virus in culture
Settings: Human immunodeficiency virus 2, ISOLATE ROD, MT4, 120 h
In the case of `CCC(C)C(=O)O[C@@]12C[C@@H](C)[C@@]3(O)[C@@H](C=C(CO)C[C@]4(O)C(=O)C(C)=C[C@@H]34)[C@@H]1C2(C)C` (some centres not stated), the EC50 is reported as 56 nM. With `Cc1ccnc2c1NC(=O)c1cccnc1N2C1CC1` [NEVIRAPINE] the EC50 was > 15000 nM. For `Nc1ccn([C@@H]2CS[C@H](CO)O2)c(=O)n1` [LAMIVUDINE], the EC50 was 15500 nM. Work on `CC/C=C/C=C/C=C\C(=O)O[C@@H]1[C@@H](C)[C@]2(O)[C@@H]3C=C(C)C(=O)[C@@H]3CC(CO)=C[C@H]2[C@@H]2C(C)(C)[C@]12OC(=O)CCC` yielded an EC50 of 174 nM.

Test system: HCT-116
Test: Cytotoxicity against human HCT116 cells at 1 uM after 72 hrs by MTS assay
Format: functional
Settings: HCT-116, 72 h
With `CCC(C)C(=O)O[C@@]12C[C@@H](C)[C@@]3(O)[C@@H](C=C(CO)C[C@]4(O)C(=O)C(C)=C[C@@H]34)[C@@H]1C2(C)C` (some centres not stated) the inhibition at 1 µM was < 40%. For `CC/C=C/C=C/C=C\C(=O)O[C@@H]1[C@@H](C)[C@]2(O)[C@@H]3C=C(C)C(=O)[C@@H]3CC(CO)=C[C@H]2[C@@H]2C(C)(C)[C@]12OC(=O)CCC`, the inhibition at 1 µM was < 40%.

Test system: Sindbis virus
Test: microbe, parasite or virus in culture
Settings: strain HRsp, Vero
In the case of `CCC(C)C(=O)O[C@@]12C[C@@H](C)[C@@]3(O)[C@@H](C=C(CO)C[C@]4(O)C(=O)C(C)=C[C@@H]34)[C@@H]1C2(C)C` (some centres not stated), the EC50 is reported as > 289 µM. `CC/C=C/C=C/C=C\C(=O)O[C@@H]1[C@@H](C)[C@]2(O)[C@@H]3C=C(C)C(=O)[C@@H]3CC(CO)=C[C@H]2[C@@H]2C(C)(C)[C@]12OC(=O)CCC` showed an EC50 of 5 µM.

Test system: not listed separately
Test: in vitro
Settings: monkey, Vero cells
Remark: another data set of the same source
For `CCC(C)C(=O)O[C@@]12C[C@@H](C)[C@@]3(O)[C@@H](C=C(CO)C[C@]4(O)C(=O)C(C)=C[C@@H]34)[C@@H]1C2(C)C` (some centres not stated), the selectivity ratio was > 240. For `CC/C=C/C=C/C=C\C(=O)O[C@@H]1[C@@H](C)[C@]2(O)[C@@H]3C=C(C)C(=O)[C@@H]3CC(CO)=C[C@H]2[C@@H]2C(C)(C)[C@]12OC(=O)CCC`, the selectivity ratio was 5.1.

Test system: MCF7
Test: Cytotoxicity against human MCF7 cells at 1 uM after 72 hrs by MTS assay
Format: functional
Settings: MCF7, 72 h
In the case of `CCC(C)C(=O)O[C@@]12C[C@@H](C)[C@@]3(O)[C@@H](C=C(CO)C[C@]4(O)C(=O)C(C)=C[C@@H]34)[C@@H]1C2(C)C` (some centres not stated), the inhibition at 1 µM is reported as < 40%. In the case of `CC/C=C/C=C/C=C\C(=O)O[C@@H]1[C@@H](C)[C@]2(O)[C@@H]3C=C(C)C(=O)[C@@H]3CC(CO)=C[C@H]2[C@@H]2C(C)(C)[C@]12OC(=O)CCC`, the inhibition at 1 µM is reported as < 40%.

Test system: not listed separately
Test: in vitro
Settings: human, MT4 cells
Remark: another data set of the same source
Work on `CCC(C)C(=O)O[C@@]12C[C@@H](C)[C@@]3(O)[C@@H](C=C(CO)C[C@]4(O)C(=O)C(C)=C[C@@H]34)[C@@H]1C2(C)C` (some centres not stated) yielded a selectivity ratio of 899. In the case of `Cc1ccnc2c1NC(=O)c1cccnc1N2C1CC1` [NEVIRAPINE], the selectivity ratio is reported as 148. With `Nc1ccn([C@@H]2CS[C@H](CO)O2)c(=O)n1` [LAMIVUDINE] the selectivity ratio was > 22. `CC/C=C/C=C/C=C\C(=O)O[C@@H]1[C@@H](C)[C@]2(O)[C@@H]3C=C(C)C(=O)[C@@H]3CC(CO)=C[C@H]2[C@@H]2C(C)(C)[C@]12OC(=O)CCC` gave a selectivity ratio of 36.

Test system: PC-3
Test: Cytotoxicity against human PC3 cells at 1 uM after 72 hrs by MTS assay
Format: functional
Settings: PC-3, 72 h
With `CCC(C)C(=O)O[C@@]12C[C@@H](C)[C@@]3(O)[C@@H](C=C(CO)C[C@]4(O)C(=O)C(C)=C[C@@H]34)[C@@H]1C2(C)C` (some centres not stated) the inhibition at 1 µM was < 40%. For `CC/C=C/C=C/C=C\C(=O)O[C@@H]1[C@@H](C)[C@]2(O)[C@@H]3C=C(C)C(=O)[C@@H]3CC(CO)=C[C@H]2[C@@H]2C(C)(C)[C@]12OC(=O)CCC`, the inhibition at 1 µM was < 40%.

Test system: not listed separately
Test: in vitro
Settings: chlorocebus sabaeus, Vero cells
With `CCC(C)C(=O)O[C@@]12C[C@@H](C)[C@@]3(O)[C@@H](C=C(CO)C[C@]4(O)C(=O)C(C)=C[C@@H]34)[C@@H]1C2(C)C` (some centres not stated) the CC50 at 72 h was > 289 µM. Work on `CCN(CC)CCCC(C)Nc1ccnc2cc(Cl)ccc12` (configuration not stated) [CHLOROQUINE] yielded a CC50 at 72 h of 89 µM. With `CC/C=C/C=C/C=C\C(=O)O[C@@H]1[C@@H](C)[C@]2(O)[C@@H]3C=C(C)C(=O)[C@@H]3CC(CO)=C[C@H]2[C@@H]2C(C)(C)[C@]12OC(=O)CCC` the CC50 at 72 h was 7.1 µM.

Test system: not listed separately
Test: in vitro
Settings: human, MT4 cells
Remark: another data set of the same source
For `CCC(C)C(=O)O[C@@]12C[C@@H](C)[C@@]3(O)[C@@H](C=C(CO)C[C@]4(O)C(=O)C(C)=C[C@@H]34)[C@@H]1C2(C)C` (some centres not stated), the selectivity ratio was 2060. In the case of `Nc1ccn([C@@H]2CS[C@H](CO)O2)c(=O)n1` [LAMIVUDINE], the selectivity ratio is reported as > 5.6. Work on `CC/C=C/C=C/C=C\C(=O)O[C@@H]1[C@@H](C)[C@]2(O)[C@@H]3C=C(C)C(=O)[C@@H]3CC(CO)=C[C@H]2[C@@H]2C(C)(C)[C@]12OC(=O)CCC` yielded a selectivity ratio of 33.

Test system: Semliki Forest virus
Test: microbe, parasite or virus in culture
Settings: strain Vietnam, Vero
For `CCC(C)C(=O)O[C@@]12C[C@@H](C)[C@@]3(O)[C@@H](C=C(CO)C[C@]4(O)C(=O)C(C)=C[C@@H]34)[C@@H]1C2(C)C` (some centres not stated), the EC50 was > 289 µM. With `CC/C=C/C=C/C=C\C(=O)O[C@@H]1[C@@H](C)[C@]2(O)[C@@H]3C=C(C)C(=O)[C@@H]3CC(CO)=C[C@H]2[C@@H]2C(C)(C)[C@]12OC(=O)CCC` the EC50 was > 177 µM.
